EC50 and Kd data for six compounds are collected here from patent US20090098130A1, “GLUCAGON-LIKE PROTEIN-1 RECEPTOR (GLP-1R) AGONIST COMPOUNDS” (priority 2007, published 2009).

Non-standard residues stand in square brackets, D forms with d. Residues, ends and D or L forms follow the SMILES beside them. Aib = CC(C)(N)C(=O)O Where only a bound is given, the exact number is not on record here.

A word on the EC50: it is the midpoint of the concentration-response curve.

The subject of one test is pancreatic β cells. Briefly: glucose-stimulated insulin secretion (GSIS) assay. Type of test: cell-based. Conditions: GA targeting peptide; insulin secretion from pancreatic β cell cultures in vitro with glucose. Here is the method: Briefly, glucose and GA targeting peptide was added at various concentrations to pancreatic β cell cultures, and insulin secretion was detected by measuring insulin levels over time. EC50 was calculated for each peptide.
The ability of these GA targeting agent-linker conjugates to stimulate […] secretion in vitro was measured using the GSIS assay described in Example 27. […] Each of these peptides contained a side-chain modified Lys residue according to the scheme illustrated in FIG. 30 at a different position.

For the next test, the target named is m38C2. Particulars: competition ELISA against immobilized BSA-conjugated β-diketone 1, read-out: apparent equilibrium dissociation constant; cited from earlier work. On the technique in general: In an ELISA, binding on a coated surface is turned into a signal by an enzyme label.
A further test deals with h38C2. Conditions: competition ELISA against immobilized BSA-conjugated β-diketone 1, read-out: apparent equilibrium dissociation constant; cited from earlier work.

`CC[C@H](C)[C@H](NC(=O)[C@H](Cc1ccccc1)NC(=O)[C@H](CCC(=O)O)NC(=O)[C@H](CCCCN)NC(=O)[C@@H](NC(=O)[C@H](C)NC(=O)[C@H](CCC(N)=O)NC(=O)[C@H](CCC(=O)O)NC(=O)[C@H](CCC(=O)O)NC(=O)[C@H](Cc1ccc(O)cc1)NC(=O)[C@H](Cc1ccc(O)cc1)NC(=O)[C@H](CO)NC(=O)[C@H](CO)NC(=O)[C@@H](NC(=O)[C@H](CC(=O)O)NC(=O)[C@H](CO)NC(=O)[C@@H](NC(=O)[C@H](Cc1ccccc1)NC(=O)[C@@H](NC(=O)CNC(=O)[C@H](CCC(=O)O)NC(=O)C(C)(C)NC(=O)[C@@H](N)Cc1c[nH]cn1)[C@@H](C)O)[C@@H](C)O)C(C)C)C(C)C)C(=O)N[C@@H](C)C(=O)N[C@@H](Cc1c[nH]c2ccccc12)C(=O)N[C@@H](CC(C)C)C(=O)N[C@H](C(=O)N[C@@H](CCCCN)C(=O)NC(C)(C)C(=O)N[C@@H](CCCNC(=N)N)C(N)=O)[C@@H](C)CC` [SEQ ID NO: 59] (H-H[Aib]EGTFTSDVSSYYEEQAVKEFIAWLIK[Aib]R-NH2) showed a concentration for a half-maximal effect (EC50) with pancreatic β cells of less than 10 µM.
As to `CC[C@H](C)[C@H](NC(=O)[C@H](Cc1ccccc1)NC(=O)[C@H](CCC(=O)O)NC(=O)[C@H](CCCCN)NC(=O)[C@@H](NC(=O)[C@H](C)NC(=O)[C@H](CCC(N)=O)NC(=O)[C@H](CCC(=O)O)NC(=O)[C@H](CCC(=O)O)NC(=O)[C@H](Cc1c[nH]c2ccccc12)NC(=O)[C@H](Cc1ccc(O)cc1)NC(=O)[C@H](CO)NC(=O)[C@H](CO)NC(=O)[C@@H](NC(=O)[C@H](CC(=O)O)NC(=O)[C@H](CO)NC(=O)[C@@H](NC(=O)[C@H](Cc1ccccc1)NC(=O)[C@@H](NC(=O)CNC(=O)[C@H](CCC(=O)O)NC(=O)C(C)(C)NC(=O)[C@@H](N)Cc1c[nH]cn1)[C@@H](C)O)[C@@H](C)O)C(C)C)C(C)C)C(=O)N[C@@H](C)C(=O)N[C@@H](Cc1c[nH]c2ccccc12)C(=O)N[C@@H](CC(C)C)C(=O)N[C@H](C(=O)N[C@@H](CCCCN)C(=O)NC(C)(C)C(=O)N[C@@H](CCCNC(=N)N)C(N)=O)[C@@H](C)CC` [SEQ ID NO: 60] (H-H[Aib]EGTFTSDVSSYWEEQAVKEFIAWLIK[Aib]R-NH2), the EC50 with pancreatic β cells is less than 10 µM.
Turning to `CC[C@H](C)[C@H](NC(=O)[C@H](Cc1ccccc1)NC(=O)[C@H](CCC(=O)O)NC(=O)[C@H](CCCCN)NC(=O)[C@@H](NC(=O)[C@H](C)NC(=O)[C@H](CCC(N)=O)NC(=O)[C@H](CCC(=O)O)NC(=O)[C@H](CCC(=O)O)NC(=O)[C@H](CC(C)C)NC(=O)[C@H](Cc1ccc(O)cc1)NC(=O)[C@H](CO)NC(=O)[C@H](CO)NC(=O)[C@@H](NC(=O)[C@H](CC(=O)O)NC(=O)[C@H](CO)NC(=O)[C@@H](NC(=O)[C@H](Cc1ccccc1)NC(=O)[C@@H](NC(=O)CNC(=O)[C@H](CCC(=O)O)NC(=O)C(C)(C)NC(=O)[C@@H](N)Cc1c[nH]cn1)[C@@H](C)O)[C@@H](C)O)C(C)C)C(C)C)C(=O)N[C@@H](C)C(=O)N[C@@H](Cc1c[nH]c2ccccc12)C(=O)N[C@@H](CC(C)C)C(=O)N[C@H](C(=O)N[C@@H](CCCNC(=N)N)C(=O)NC(C)(C)C(=O)N[C@@H](CCCNC(=N)N)C(N)=O)[C@@H](C)CC` [SEQ ID NO: 61] (H-H[Aib]EGTFTSDVSSYLEEQAVKEFIAWLIR[Aib]R-NH2), the EC50 in the test on pancreatic β cells is less than 10 µM.
On to `CC[C@H](C)[C@H](NC(=O)[C@H](Cc1ccccc1)NC(=O)[C@H](CCC(=O)O)NC(=O)[C@H](CCCNC(=N)N)NC(=O)[C@@H](NC(=O)[C@H](C)NC(=O)[C@H](CCC(N)=O)NC(=O)[C@H](CCC(=O)O)NC(=O)[C@H](CCC(=O)O)NC(=O)[C@H](CC(C)C)NC(=O)[C@H](Cc1ccc(O)cc1)NC(=O)[C@H](CO)NC(=O)[C@H](CO)NC(=O)[C@@H](NC(=O)[C@H](CC(=O)O)NC(=O)[C@H](CO)NC(=O)[C@@H](NC(=O)[C@H](Cc1ccccc1)NC(=O)[C@@H](NC(=O)CNC(=O)[C@H](CCC(=O)O)NC(=O)C(C)(C)NC(=O)[C@@H](N)Cc1c[nH]cn1)[C@@H](C)O)[C@@H](C)O)C(C)C)C(C)C)C(=O)N[C@@H](C)C(=O)N[C@@H](Cc1c[nH]c2ccccc12)C(=O)N[C@@H](CC(C)C)C(=O)N[C@H](C(=O)N[C@@H](CCCNC(=N)N)C(=O)NC(C)(C)C(=O)N[C@@H](CCCNC(=N)N)C(N)=O)[C@@H](C)CC` [SEQ ID NO: 62] (H-H[Aib]EGTFTSDVSSYLEEQAVREFIAWLIR[Aib]R-NH2), for which the concentration giving a half-maximal response (EC50) in the test with pancreatic β cells was less than 10 µM.
For `CC(=O)CC(C)=O` [β-diketone 2], the Kd at m38C2 is 38 µM; at h38C2 it was 7.6 µM.
With `CC(=O)CC(=O)CCc1ccccc1` [β-diketone 3], the values for the Kd on m38C2 and at h38C2 were 0.43 µM and 1 µM, respectively.
